# Source: PubChem BioAssay AID2060906 (Molecular Pharmacology Branch, DTP, NCI, 2025)
# Tested on: 485176-168-R4-J1-PDC complex spheroid growth
# Assay: Anticancer human tumor 485176-168-R4-J1-PDC patient-derived pancreatic adenocarcinoma cell line growth inhibition [RAS]
# Conditions: for IC50: curve of first compound; for viability, T/C: stronger effect = lower value
# How it was run: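 Multi-cell-type spheroids: tumor cells plus HUVEC endothelial cells and mesenchymal stem cells. RAS-pathway inhibitors were combined with targeted agents, each dosed in half-log steps down from clinical Cmax, or from 10 microM when Cmax was unknown.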
# [1] = second compound 0.00316 µM, first compound 0.0316 µM
# [2] = second compound 0.00316 µM, first compound 0.1 µM
# [3] = second compound 0.00316 µM, first compound 0.316 µM
# [4] = second compound 0.00316 µM, first compound 1 µM
# [5] = second compound 0.00316 µM, first compound 3.16 µM
# [6] = second compound 0.00316 µM, first compound 10 µM
# [7] = second compound 0.01 µM, first compound 0.0316 µM
# [8] = second compound 0.01 µM, first compound 0.1 µM
# [9] = second compound 0.01 µM, first compound 0.316 µM
# [10] = second compound 0.01 µM, first compound 1 µM
# [11] = second compound 0.01 µM, first compound 3.16 µM
# [12] = second compound 0.01 µM, first compound 10 µM
# [13] = second compound 0.0316 µM, first compound 0.0316 µM
# [14] = second compound 0.0316 µM, first compound 0.1 µM
# [15] = second compound 0.0316 µM, first compound 0.316 µM
# [16] = second compound 0.0316 µM, first compound 1 µM
# [17] = second compound 0.0316 µM, first compound 3.16 µM
# [18] = second compound 0.0316 µM, first compound 10 µM
# [19] = second compound 0.1 µM, first compound 0.0316 µM
# [20] = second compound 0.1 µM, first compound 0.1 µM
# [21] = second compound 0.1 µM, first compound 0.316 µM
# [22] = second compound 0.1 µM, first compound 1 µM
# [23] = second compound 0.1 µM, first compound 3.16 µM
# [24] = second compound 0.1 µM, first compound 10 µM
# [25] = second compound 0.316 µM, first compound 0.0316 µM
# [26] = second compound 0.316 µM, first compound 0.1 µM
# [27] = second compound 0.316 µM, first compound 0.316 µM
# [28] = second compound 0.316 µM, first compound 1 µM
# [29] = second compound 0.316 µM, first compound 3.16 µM
# [30] = second compound 0.316 µM, first compound 10 µM
# [31] = second compound 1 µM, first compound 0.0316 µM
# [32] = second compound 1 µM, first compound 0.1 µM
# [33] = second compound 1 µM, first compound 0.316 µM
# [34] = second compound 1 µM, first compound 1 µM
# [35] = second compound 1 µM, first compound 3.16 µM
# [36] = second compound 1 µM, first compound 10 µM
# 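Note: spheroids exposed to compounds for seven days before readout.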
# 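Throughout, for viability, T/C: luminescence viability expressed relative to DMSO vehicle wells set as 100%.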
smiles,measurement,setting,value
Cc1nc(N2CCC3(CC2)COC(C)C3N)c(CO)nc1Sc1ccnc(N)c1Cl (stereo unspecified) + C=CC(=O)N1CCN(c2nc(OCC3CCCN3C)nc3c(F)c(-c4nc(N)cc(C)c4C(F)(F)F)c(Cl)cc23)C(C)C1,IC50,second compound 0.00316 µM,> 10 µM
same,IC50,second compound 0.01 µM,> 10 µM
same,IC50,second compound 0.0316 µM,> 10 µM
same,IC50,second compound 0.1 µM,> 10 µM
same,IC50,second compound 0.316 µM,> 10 µM
same,IC50,second compound 1 µM,> 10 µM
same,"viability, T/C",[1],95.1%
same,"viability, T/C",[2],91.5%
same,"viability, T/C",[3],77.3%
same,"viability, T/C",[4],71.3%
same,"viability, T/C",[5],79.7%
same,"viability, T/C",[6],76%
same,"viability, T/C",[7],96.3%
same,"viability, T/C",[8],76.5%
same,"viability, T/C",[9],78.7%
same,"viability, T/C",[10],74.2%
same,"viability, T/C",[11],75.3%
same,"viability, T/C",[12],90.6%
same,"viability, T/C",[13],94%
same,"viability, T/C",[14],91.5%
same,"viability, T/C",[15],87.2%
same,"viability, T/C",[16],71.8%
same,"viability, T/C",[17],66.6%
same,"viability, T/C",[18],71.7%
same,"viability, T/C",[19],91.1%
same,"viability, T/C",[20],92.8%
same,"viability, T/C",[21],82.5%
same,"viability, T/C",[22],65.1%
same,"viability, T/C",[23],77.6%
same,"viability, T/C",[24],74.6%
same,"viability, T/C",[25],101%
same,"viability, T/C",[26],99.8%
same,"viability, T/C",[27],81.8%
same,"viability, T/C",[28],83.6%
same,"viability, T/C",[29],74.2%
same,"viability, T/C",[30],71%
same,"viability, T/C",[31],103%
same,"viability, T/C",[32],91%
same,"viability, T/C",[33],80.4%
same,"viability, T/C",[34],73.2%
same,"viability, T/C",[35],81.5%
same,"viability, T/C",[36],76.5%
NC1c2ccccc2OC12CCN(c1cnc3c(N4CCCc5ncccc54)n[nH]c3n1)CC2 (stereo unspecified) + C=CC(=O)N1CCN(c2nc(OCC3CCCN3C)nc3c(F)c(-c4nc(N)cc(C)c4C(F)(F)F)c(Cl)cc23)C(C)C1,IC50,second compound 0.00316 µM,> 10 µM
same,IC50,second compound 0.01 µM,> 10 µM
same,IC50,second compound 0.0316 µM,> 10 µM
same,IC50,second compound 0.1 µM,> 10 µM
same,IC50,second compound 0.316 µM,> 10 µM
same,IC50,second compound 1 µM,> 10 µM
same,"viability, T/C",[1],81.4%
same,"viability, T/C",[2],77.9%
same,"viability, T/C",[3],71.7%
same,"viability, T/C",[4],80.1%
same,"viability, T/C",[5],77.2%
same,"viability, T/C",[6],55.8%
same,"viability, T/C",[7],84.1%
same,"viability, T/C",[8],75.3%
same,"viability, T/C",[9],87.9%
same,"viability, T/C",[10],70%
same,"viability, T/C",[11],79.1%
same,"viability, T/C",[12],62.9%
same,"viability, T/C",[13],82.9%
same,"viability, T/C",[14],66.2%
same,"viability, T/C",[15],76.7%
same,"viability, T/C",[16],85.3%
same,"viability, T/C",[17],72.9%
same,"viability, T/C",[18],59.1%
same,"viability, T/C",[19],91.2%
same,"viability, T/C",[20],86.5%
same,"viability, T/C",[21],71%
same,"viability, T/C",[22],72.6%
same,"viability, T/C",[23],84%
same,"viability, T/C",[24],81.7%
same,"viability, T/C",[25],82.7%
same,"viability, T/C",[26],91.5%
same,"viability, T/C",[27],82.5%
same,"viability, T/C",[28],91.5%
same,"viability, T/C",[29],80.2%
same,"viability, T/C",[30],61%
same,"viability, T/C",[31],91.5%
same,"viability, T/C",[32],68.8%
same,"viability, T/C",[33],69.5%
same,"viability, T/C",[34],72.1%
same,"viability, T/C",[35],74%
same,"viability, T/C",[36],66.2%
Nc1ccn(C2OC(CO)C(O)C2(F)F)c(=O)n1 (stereo unspecified) + C=CC(=O)N1CCN(c2nc(OCC3CCCN3C)nc3c(F)c(-c4nc(N)cc(C)c4C(F)(F)F)c(Cl)cc23)C(C)C1,IC50,second compound 0.00316 µM,0.015 µM
same,IC50,second compound 0.01 µM,0.0168 µM
same,IC50,second compound 0.0316 µM,0.0175 µM
same,IC50,second compound 0.1 µM,0.0176 µM
same,IC50,second compound 0.316 µM,0.0137 µM
same,IC50,second compound 1 µM,0.0175 µM
same,"viability, T/C","second compound 0.00316 µM, first compound 0.00316 µM",89.7%
same,"viability, T/C","second compound 0.00316 µM, first compound 0.01 µM",70.5%
same,"viability, T/C",[1],12.2%
same,"viability, T/C",[2],7.74%
same,"viability, T/C",[3],7.62%
same,"viability, T/C",[4],8.54%
same,"viability, T/C","second compound 0.01 µM, first compound 0.00316 µM",101%
same,"viability, T/C","second compound 0.01 µM, first compound 0.01 µM",81.4%
same,"viability, T/C",[7],11.6%
same,"viability, T/C",[8],8.54%
same,"viability, T/C",[9],7.95%
same,"viability, T/C",[10],11.2%
same,"viability, T/C","second compound 0.0316 µM, first compound 0.00316 µM",84.2%
same,"viability, T/C","second compound 0.0316 µM, first compound 0.01 µM",86%
same,"viability, T/C",[13],13%
same,"viability, T/C",[14],6.18%
same,"viability, T/C",[15],9.67%
same,"viability, T/C",[16],8.77%
same,"viability, T/C","second compound 0.1 µM, first compound 0.00316 µM",96.1%
same,"viability, T/C","second compound 0.1 µM, first compound 0.01 µM",86.2%
same,"viability, T/C",[19],12.4%
same,"viability, T/C",[20],9.42%
same,"viability, T/C",[21],8.72%
same,"viability, T/C",[22],8.42%
same,"viability, T/C","second compound 0.316 µM, first compound 0.00316 µM",98.1%
same,"viability, T/C","second compound 0.316 µM, first compound 0.01 µM",63.7%
same,"viability, T/C",[25],13.7%
same,"viability, T/C",[26],7.48%
same,"viability, T/C",[27],6.75%
same,"viability, T/C",[28],9.71%
same,"viability, T/C","second compound 1 µM, first compound 0.00316 µM",103%
same,"viability, T/C","second compound 1 µM, first compound 0.01 µM",85.2%
same,"viability, T/C",[31],13%
same,"viability, T/C",[32],8.41%
same,"viability, T/C",[33],9.99%
same,"viability, T/C",[34],10.3%
